{"source": "ChEMBL document CHEMBL1153512", "about": "“Anti-HBV and cytotoxic activities of pyranocoumarin derivatives” (Bioorg Med Chem, 2009)"}
{"tested_on": "Hepatitis B virus", "experiment": "Antiviral activity against Hepatitis B virus infected in human […] cells assessed as suppression of viral surface antigen production upto 15 uM after 48 hrs by enzyme immunoassay", "type": "functional, organism-based", "conditions": "not given; call rule not given here"}
{"smiles": "C=CC(C)(C)c1cc2c(OC)c3c(c(C(C)(C)C=C)c2oc1=O)OC(C)(C)C=C3", "EC50": "Not Active"}
{"smiles": "COc1c2c(c(C(C)(C)C3CO3)c3oc(=O)ccc13)OC(C)(C)CC2=O", "note": "(stereo not given)", "EC50": "Not Active"}
{"smiles": "CC1(C)CC(=O)c2c(c(C(C)(C)C3CO3)c3oc(=O)ccc3c2O)O1", "note": "(stereo not given)", "EC50": "Not Active"}
{"smiles": "COc1c2c(c(C(C)(C)C3CO3)c3oc(=O)c(C(C)(C)C4CO4)cc13)OC(C)(C)C1OC21", "note": "(stereo not given)", "EC50": "Not Active"}
{"smiles": "CCC(C)(C)c1cc2c(O)c3c(c(C(C)(C)CC)c2oc1=O)OC(C)(C)CC3", "EC50": "Not Active"}
{"smiles": "COc1c2c(cc3oc(=O)ccc13)OC(C)(C)CC2", "EC50": "Not Active"}
{"smiles": "COc1c2c(c(C(C)(C)C3CO3)c3oc(=O)ccc13)OC(C)(C)C1OC21", "note": "(stereo not given)", "EC50": "Not Active"}
{"smiles": "COc1c2c(cc3oc(=O)ccc13)OC(C)(C)C1OC21", "note": "(stereo not given)", "EC50": "Not Active"}
{"smiles": "C=CC(C)(C)c1cc2c(O)c3c(c(C(C)(C)C=C)c2oc1=O)OC(C)(C)C=C3", "note": "[CLAUSARIN]", "EC50": "Not Active"}
{"smiles": "COc1c2c(cc3oc(=O)ccc13)OC(C)(C)C=C2", "note": "[XANTHOXYLETIN]", "EC50": "Not Active"}
{"tested_on": "KB", "experiment": "Cytotoxicity against human KB cells after 3 days by sulforhodamine B assay", "type": "functional, cell-based", "conditions": "72 h", "units": {"EC50": "µg/mL"}}
{"smiles": "CCC(C)(C)c1c2c(c(O)c3ccc(=O)oc13)C(=O)CC(C)(C)O2", "EC50": 19.5}
{"smiles": "CCC(C)(C)c1c2c(c(OC)c3ccc(=O)oc13)CCC(C)(C)O2", "EC50": 11.5}
{"smiles": "CC1(C)CC(=O)c2c(c(C(C)(C)C3CO3)c3oc(=O)ccc3c2O)O1", "note": "(stereo not given)", "EC50": "> 20"}
{"smiles": "CCC(C)(C)c1cc2c(O)c3c(c(C(C)(C)CC)c2oc1=O)OC(C)(C)CC3", "EC50": 8.21}
{"smiles": "C=CC(C)(C)c1cc2c(OC)c3c(c(C(C)(C)C=C)c2oc1=O)OC(C)(C)C1OC31", "note": "(stereo not given)", "EC50": 6.5}
{"smiles": "CCC(C)(C)c1c2c(c(O)c3ccc(=O)oc13)CCC(C)(C)O2", "EC50": 9.25}
{"smiles": "CCC(C)(C)c1c2c(c(OC)c3ccc(=O)oc13)C(=O)CC(C)(C)O2", "EC50": "> 20"}
{"smiles": "C=CC(C)(C)c1cc2c(O)c3c(c(C(C)(C)C=C)c2oc1=O)OC(C)(C)C=C3", "note": "[CLAUSARIN]", "EC50": 1.61}
{"smiles": "C=CC(C)(C)c1c2c(c(OC)c3ccc(=O)oc13)C=CC(C)(C)O2", "note": "[DENTATIN]", "EC50": 13.3}
{"smiles": "C=CC(C)(C)c1c2c(c(O)c3ccc(=O)oc13)C=CC(C)(C)O2", "note": "[NORDENTATIN]", "EC50": 9.63}
{"tested_on": "MCF7", "experiment": "Cytotoxicity against human MCF7 cells after 3 days by sulforhodamine B assay", "type": "functional, cell-based", "conditions": "MCF7, 72 h", "units": {"EC50": "µg/mL"}}
{"smiles": "CCC(C)(C)c1c2c(c(O)c3ccc(=O)oc13)C(=O)CC(C)(C)O2", "EC50": "> 20"}
{"smiles": "CCC(C)(C)c1c2c(c(OC)c3ccc(=O)oc13)CCC(C)(C)O2", "EC50": "> 20"}
{"smiles": "CC1(C)CC(=O)c2c(c(C(C)(C)C3CO3)c3oc(=O)ccc3c2O)O1", "note": "(stereo not given)", "EC50": "> 20"}
{"smiles": "CCC(C)(C)c1cc2c(O)c3c(c(C(C)(C)CC)c2oc1=O)OC(C)(C)CC3", "EC50": 17.7}
{"smiles": "C=CC(C)(C)c1cc2c(OC)c3c(c(C(C)(C)C=C)c2oc1=O)OC(C)(C)C1OC31", "note": "(stereo not given)", "EC50": 11.4}
{"smiles": "CCC(C)(C)c1c2c(c(O)c3ccc(=O)oc13)CCC(C)(C)O2", "EC50": 16.3}
{"smiles": "CCC(C)(C)c1c2c(c(OC)c3ccc(=O)oc13)C(=O)CC(C)(C)O2", "EC50": "> 20"}
{"smiles": "C=CC(C)(C)c1cc2c(O)c3c(c(C(C)(C)C=C)c2oc1=O)OC(C)(C)C=C3", "note": "[CLAUSARIN]", "EC50": 7.96}
{"smiles": "C=CC(C)(C)c1c2c(c(OC)c3ccc(=O)oc13)C=CC(C)(C)O2", "note": "[DENTATIN]", "EC50": "> 20"}
{"smiles": "C=CC(C)(C)c1c2c(c(O)c3ccc(=O)oc13)C=CC(C)(C)O2", "note": "[NORDENTATIN]", "EC50": 17.3}
{"tested_on": "not listed separately", "experiment": "Cytotoxicity against human KBVIN cells after 3 days by sulforhodamine B assay", "type": "functional, cell-based", "conditions": "72 h", "units": {"EC50": "µg/mL"}}
{"smiles": "CCC(C)(C)c1c2c(c(O)c3ccc(=O)oc13)C(=O)CC(C)(C)O2", "EC50": 2.87}
{"smiles": "CCC(C)(C)c1c2c(c(OC)c3ccc(=O)oc13)CCC(C)(C)O2", "EC50": 10.2}
{"smiles": "CC1(C)CC(=O)c2c(c(C(C)(C)C3CO3)c3oc(=O)ccc3c2O)O1", "note": "(stereo not given)", "EC50": 2.71}
{"smiles": "CCC(C)(C)c1cc2c(O)c3c(c(C(C)(C)CC)c2oc1=O)OC(C)(C)CC3", "EC50": 7.73}
{"smiles": "C=CC(C)(C)c1cc2c(OC)c3c(c(C(C)(C)C=C)c2oc1=O)OC(C)(C)C1OC31", "note": "(stereo not given)", "EC50": 6.12}
{"smiles": "CCC(C)(C)c1c2c(c(O)c3ccc(=O)oc13)CCC(C)(C)O2", "EC50": 9.11}
{"smiles": "CCC(C)(C)c1c2c(c(OC)c3ccc(=O)oc13)C(=O)CC(C)(C)O2", "EC50": 13}
{"smiles": "C=CC(C)(C)c1cc2c(O)c3c(c(C(C)(C)C=C)c2oc1=O)OC(C)(C)C=C3", "note": "[CLAUSARIN]", "EC50": 1.59}
{"smiles": "C=CC(C)(C)c1c2c(c(OC)c3ccc(=O)oc13)C=CC(C)(C)O2", "note": "[DENTATIN]", "EC50": 14.7}
{"smiles": "C=CC(C)(C)c1c2c(c(O)c3ccc(=O)oc13)C=CC(C)(C)O2", "note": "[NORDENTATIN]", "EC50": 9.96}
{"tested_on": "Hepatitis B virus", "experiment": "Antiviral activity against Hepatitis B virus infected in human […] cells assessed as suppression of viral surface antigen production after 48 hrs by enzyme immunoassay", "type": "functional, organism-based", "conditions": "not given", "units": {"EC50": "µM"}}
{"smiles": "CCC(C)(C)c1c2c(c(O)c3ccc(=O)oc13)C(=O)CC(C)(C)O2", "EC50": 1.14}
{"smiles": "CCC(C)(C)c1cc2c(OC)c3c(c(C(C)(C)CC)c2oc1=O)OC(C)(C)CC3", "EC50": 6.6}
{"smiles": "CCC(C)(C)c1c2c(c(OC)c3ccc(=O)oc13)CCC(C)(C)O2", "EC50": 1.63}
{"smiles": "C=CC(C)(C)c1cc2c(OC)c3c(c(C(C)(C)C=C)c2oc1=O)OC(C)(C)C1OC31", "note": "(stereo not given)", "EC50": 4.56}
{"smiles": "C=CC(C)(C)c1c2c(c(OC)c3ccc(=O)oc13)C1OC1C(C)(C)O2", "note": "(stereo not given)", "EC50": 5.5}
{"smiles": "C=CC(C)(C)c1c2c(c(OC)c3ccc(=O)oc13)C(=O)CC(C)(C)O2", "EC50": 11.2}
{"smiles": "CCC(C)(C)c1c2c(c(O)c3ccc(=O)oc13)CCC(C)(C)O2", "EC50": 1.34}
{"smiles": "CCC(C)(C)c1c2c(c(OC)c3ccc(=O)oc13)C(=O)CC(C)(C)O2", "EC50": 5.35}
{"smiles": "C=CC(C)(C)c1c2c(c(OC)c3ccc(=O)oc13)C=CC(C)(C)O2", "note": "[DENTATIN]", "EC50": 1.64}
{"smiles": "C=CC(C)(C)c1c2c(c(O)c3ccc(=O)oc13)C=CC(C)(C)O2", "note": "[NORDENTATIN]", "EC50": 6.38}
{"tested_on": "A549", "experiment": "Cytotoxicity against human A549 cells after 3 days by sulforhodamine B assay", "type": "functional, cell-based", "conditions": "A549, 72 h", "units": {"EC50": "µg/mL"}}
{"smiles": "CCC(C)(C)c1c2c(c(O)c3ccc(=O)oc13)C(=O)CC(C)(C)O2", "EC50": 19.7}
{"smiles": "CCC(C)(C)c1c2c(c(OC)c3ccc(=O)oc13)CCC(C)(C)O2", "EC50": "> 20"}
{"smiles": "CC1(C)CC(=O)c2c(c(C(C)(C)C3CO3)c3oc(=O)ccc3c2O)O1", "note": "(stereo not given)", "EC50": "> 20"}
{"smiles": "CCC(C)(C)c1cc2c(O)c3c(c(C(C)(C)CC)c2oc1=O)OC(C)(C)CC3", "EC50": 12.2}
{"smiles": "C=CC(C)(C)c1cc2c(OC)c3c(c(C(C)(C)C=C)c2oc1=O)OC(C)(C)C1OC31", "note": "(stereo not given)", "EC50": 11.8}
{"smiles": "CCC(C)(C)c1c2c(c(O)c3ccc(=O)oc13)CCC(C)(C)O2", "EC50": 8.84}
{"smiles": "CCC(C)(C)c1c2c(c(OC)c3ccc(=O)oc13)C(=O)CC(C)(C)O2", "EC50": "> 20"}
{"smiles": "C=CC(C)(C)c1cc2c(O)c3c(c(C(C)(C)C=C)c2oc1=O)OC(C)(C)C=C3", "note": "[CLAUSARIN]", "EC50": 2.98}
{"smiles": "C=CC(C)(C)c1c2c(c(OC)c3ccc(=O)oc13)C=CC(C)(C)O2", "note": "[DENTATIN]", "EC50": "> 20"}
{"smiles": "C=CC(C)(C)c1c2c(c(O)c3ccc(=O)oc13)C=CC(C)(C)O2", "note": "[NORDENTATIN]", "EC50": 8.7}
